What was measured:
[1] = target: T1, AR (AR-full length) in LNCaP cells (Homo sapiens, UniProt P10275, T878A); assay: LNCaP Androgen Receptor Imaging Assay (immunofluorescence of endogenous nuclear AR); format: cell-based; details: 24 h incubation; for DC50: concentration giving 50% of maximum degradation of AR per curve fit, single experiment or average of two or more; for Dmax: LNCaP, maximum degradation observed, normalized as % of positive control (prior art AR PROTAC at 3 μM)
T1 construct: the prostate cancer cell line LNCaP (expressing AR-full length); endogenous in cells; host or cells: LNCaP
Summary of the method: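 Endogenous nuclear AR level was imaged by immunofluorescence after 24 h compound exposure (12-point dose response, 0.3% DMSO, 37° C./5% CO2) in LNCaP cells. Data were expressed as % of a 3 μM prior-art AR PROTAC control and fitted (bell fit where a hook appeared) to give DC50 and maximum degradation Dmax.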

[2] = target: T2, AR (L702H) in LNCaP cells (Homo sapiens, UniProt P10275, L702H/T878A); assay: LNCaP Androgen Receptor L702H Imaging Assay (LNCaP cells engineered by CRISPR/Cas9); format: cell-based; details: LNCaP cells with AR L702H mutation, 24 h incubation; for DC50: concentration giving 50% of maximum degradation of AR (L702H) per curve fit; for Dmax: LNCaP, maximum degradation observed, normalized as % of positive control
T2 construct: engineered to introduce the mutation L702H into the AR gene using CRISPR/Cas9; endogenous in cells; host or cells: LNCaP cells edited by CRISPR/Cas9 at the AR gene
Summary of the method: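 AR (L702H) degradation, expressed as DC50 and Dmax from curve fits normalized to a positive degrader control, was measured by high-content imaging of anti-AR immunofluorescence. The engineered LNCaP line was dosed over 12 concentrations for 24 h, 0.3% DMSO final, before PFA fixation.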

T1 sequence (P10275 whole entry T878A): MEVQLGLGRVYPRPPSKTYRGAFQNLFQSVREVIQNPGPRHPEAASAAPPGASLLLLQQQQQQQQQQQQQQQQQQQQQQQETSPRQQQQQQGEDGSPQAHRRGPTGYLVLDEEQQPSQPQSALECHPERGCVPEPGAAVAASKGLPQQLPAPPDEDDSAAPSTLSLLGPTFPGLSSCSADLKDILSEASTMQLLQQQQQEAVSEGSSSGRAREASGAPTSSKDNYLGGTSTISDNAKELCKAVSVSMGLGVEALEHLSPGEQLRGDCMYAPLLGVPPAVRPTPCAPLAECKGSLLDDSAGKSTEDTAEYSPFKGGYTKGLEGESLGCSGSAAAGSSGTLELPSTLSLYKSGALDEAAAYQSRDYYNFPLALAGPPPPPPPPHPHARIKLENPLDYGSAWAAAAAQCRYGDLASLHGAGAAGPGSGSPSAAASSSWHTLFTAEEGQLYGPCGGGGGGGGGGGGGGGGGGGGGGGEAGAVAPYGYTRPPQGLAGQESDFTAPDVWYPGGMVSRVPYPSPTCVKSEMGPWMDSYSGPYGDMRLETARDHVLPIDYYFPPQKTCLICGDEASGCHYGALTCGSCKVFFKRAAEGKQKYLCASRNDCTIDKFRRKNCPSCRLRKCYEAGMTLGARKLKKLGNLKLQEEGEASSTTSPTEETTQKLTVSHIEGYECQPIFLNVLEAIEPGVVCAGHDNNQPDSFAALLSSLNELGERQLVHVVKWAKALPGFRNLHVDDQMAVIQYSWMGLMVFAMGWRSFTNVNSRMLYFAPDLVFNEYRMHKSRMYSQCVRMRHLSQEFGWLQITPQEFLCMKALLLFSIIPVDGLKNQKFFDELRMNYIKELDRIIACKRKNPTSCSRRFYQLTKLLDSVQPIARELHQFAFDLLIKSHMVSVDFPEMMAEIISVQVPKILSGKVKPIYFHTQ
T1 sequence (Q96SW2 whole entry partner): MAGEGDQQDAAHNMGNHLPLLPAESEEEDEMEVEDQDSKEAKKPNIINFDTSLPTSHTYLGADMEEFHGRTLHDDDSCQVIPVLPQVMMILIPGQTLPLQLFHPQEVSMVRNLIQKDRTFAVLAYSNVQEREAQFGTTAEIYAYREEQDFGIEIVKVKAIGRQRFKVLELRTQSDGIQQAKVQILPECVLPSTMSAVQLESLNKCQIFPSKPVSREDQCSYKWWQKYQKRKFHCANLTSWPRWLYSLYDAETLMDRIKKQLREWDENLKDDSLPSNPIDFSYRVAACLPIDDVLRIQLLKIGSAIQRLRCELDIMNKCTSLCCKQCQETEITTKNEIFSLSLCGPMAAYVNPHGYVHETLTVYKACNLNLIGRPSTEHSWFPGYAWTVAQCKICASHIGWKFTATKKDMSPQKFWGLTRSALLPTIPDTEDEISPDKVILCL
T2 sequence (P10275 whole entry L702H/T878A): as the sequence (P10275 whole entry T878A) above, with L702H counted along it
T2 sequence (Q96SW2 whole entry partner): as the sequence (Q96SW2 whole entry partner) above

Row | Structure (SMILES) | DC50 [1] | Dmax [1] | DC50 [2] | Dmax [2]
1 | Cn1c(=O)n(C2CCC(=O)NC2=O)c2cccc(CN3CCN(CC4CCN(c5ccc([C@@H]6CCCN(c7ccc(F)c8c(C#N)c[nH]c78)C6)cc5)CC4)CC3)c21 (stereo partly shown) [Example 74] | 8 nM | 93% | 21 nM | 70%
2 | N#Cc1c[nH]c2c(N3CCC(c4ccc(N5CCC(CN6Cc7cc8c(cc7C6)C(=O)N(C6CCC(=O)NC6=O)C8=O)CC5)cc4)CC3)ccc(Cl)c12 (stereo not shown) [Example 75, 4-Chloro-7-{4-[4-(4-{[6-(2,6-dioxopiperidin-3-yl)-5,7-dioxo-3,5,6,7-tetrahydropyrrolo[3,4-f]isoindol-2(1H)-yl]methyl}piperidin-1-yl)phenyl]piperidin-1-yl}-1H-indole-3-carbonitrile] | 62 nM | 68% | 68 nM | 83%
3 | N#Cc1n[nH]c2c(N3CCC[C@@H](c4ccc(N5CCC(CN6Cc7cc8c(cc7C6)C(=O)N(C6CCC(=O)NC6=O)C8=O)CC5)cc4)C3)ccc(Cl)c12 (stereo partly drawn) [Example 76, 4-Chloro-7-{(3S)-3-[4-(4-{[6-(2,6-dioxopiperidin-3-yl)-5,7-dioxo-3,5,6,7-tetrahydropyrrolo[3,4-f]isoindol-2(1H)-yl]methyl}piperidin-1-yl)phenyl]piperidin-1-yl}-1H-indazole-3-carbonitrile] | 18 nM | 92% | 38 nM | 104%
4 | N#Cc1c[nH]c2c(N3CCC[C@@H](c4ccc(N5CCC(CN6Cc7cc8c(cc7C6)C(=O)N(C6CCC(=O)NC6=O)C8=O)CC5)cc4)C3)ccc(Cl)c12 (stereo partly drawn) [Example 77, 4-Chloro-7-{(3S)-3-[4-(4-{[6-(2,6-dioxopiperidin-3-yl)-5,7-dioxo-3,5,6,7-tetrahydropyrrolo[3,4-f]isoindol-2(1H)-yl]methyl}piperidin-1-yl)phenyl]piperidin-1-yl}-1H-indole-3-carbonitrile] | 14 nM | 79% | 67 nM | 69%
5 | Cn1c(C2CCN(CC3CCN(c4ccc(C5CCN(c6ccc(Cl)c7c(C#N)c[nH]c67)CC5)cc4)CC3)CC2)cc2ccc(N3CCC(=O)NC3=O)cc21 [Example 84, 4-Chloro-7-(4-{4-[4-({4-[6-(2,4-dioxo-1,3-diazinan-1-yl)-1-methyl-1H-indol-2-yl]piperidin-1-yl}methyl)piperidin-1-yl]phenyl}piperidin-1-yl)-1H-indole-3-carbonitrile] | 22 nM | 99% | 12 nM | 103%
6 | N#Cc1c[nH]c2c(N3CCC(c4ccc(C(=O)N5CCC(CN6CCN(c7ccc8c(c7)CN(C7CCC(=O)NC7=O)C8=O)CC6)CC5)cc4)CC3)ccc(Cl)c12 (stereo not shown) [Example 85, 4-Chloro-7-(4-{4-[4-({4-[2-(2,6-dioxopiperidin-3-yl)-1-oxo-2,3-dihydro-1H-isoindol-5-yl]piperazin-1-yl}methyl)piperidine-1-carbonyl]phenyl}piperidin-1-yl)-1H-indole-3-carbonitrile] | 4 nM | 98% | 17 nM | 83%
7 | COc1nc(N2CCN(C3CCN(c4ccc(C5CCN(c6ccc(Cl)c7c(C#N)c[nH]c67)CC5)cc4)CC3)CC2)cc2c1C(=O)N(C1CCC(=O)NC1=O)C2 (stereo not shown) [Example 86, 4-Chloro-7-{4-[4-(4-{4-[2-(2,6-dioxopiperidin-3-yl)-4-methoxy-3-oxo-2,3-dihydro-1H-pyrrolo[3,4-c]pyridin-6-yl]piperazin-1-yl}piperidin-1-yl)phenyl]piperidin-1-yl}-1H-indole-3-carbonitrile] | 15 nM | 94% | 14 nM | 99%
8 | COc1nc(N2CCN(CCC3CCN(c4ccc(C5CCN(c6ccc(Cl)c7c(C#N)c[nH]c67)CC5)cc4)CC3)CC2)cc2c1C(=O)N(C1CCC(=O)NC1=O)C2 (stereo not shown) [Example 87, 4-Chloro-7-(4-{4-[4-(2-{4-[2-(2,6-dioxopiperidin-3-yl)-4-methoxy-3-oxo-2,3-dihydro-1H-pyrrolo[3,4-c]pyridin-6-yl]piperazin-1-yl}ethyl)piperidin-1-yl]phenyl}piperidin-1-yl)-1H-indole-3-carbonitrile] | 5 nM | 95% | 8 nM | 94%
9 | COc1nc(N2CCN(CCCC3CCN(c4ccc(C5CCN(c6ccc(Cl)c7c(C#N)c[nH]c67)CC5)cc4)CC3)CC2)cc2c1C(=O)N(C1CCC(=O)NC1=O)C2 (stereo not shown) [Example 88, 4-Chloro-7-(4-{4-[4-(3-{4-[2-(2,6-dioxopiperidin-3-yl)-4-methoxy-3-oxo-2,3-dihydro-1H-pyrrolo[3,4-c]pyridin-6-yl]piperazin-1-yl}propyl)piperidin-1-yl]phenyl}piperidin-1-yl)-1H-indole-3-carbonitrile] | 13 nM | 96% | 21 nM | 99%
10 | N#Cc1c[nH]c2c(N3CCC(c4ccc(N5CCC(CN6CCC(n7ccc8cc(N9CCC(=O)NC9=O)ccc87)CC6)CC5)cc4)CC3)ccc(F)c12 [Example 89, 7-(4-{4-[4-({4-[5-(2,4-Dioxo-1,3-diazinan-1-yl)-1H-indol-1-yl]piperidin-1-yl}methyl)piperidin-1-yl]phenyl}piperidin-1-yl)-4-fluoro-1H-indole-3-carbonitrile] | 421 nM | 70% | 56 nM | 97%
11 | Cc1ccc(N2CCN(c3ccc(OCCCCN4CCN(c5ccc6c(c5)CN(C5CCC(=O)NC5=O)C6=O)CC4)cc3)CC2)c2[nH]cc(C#N)c12 (stereo not shown) [Example 95, 7-{4-[4-(4-{4-[2-(2,6-Dioxopiperidin-3-yl)-1-oxo-2,3-dihydro-1H-isoindol-5-yl]piperazin-1-yl}butoxy)phenyl]piperazin-1-yl}-4-methyl-1H-indole-3-carbonitrile] | 10 nM | 54% | > 3000 nM | 

More lines, now with the values ahead:

Row | DC50 [1] | Dmax [1] | DC50 [2] | Dmax [2] | Structure (SMILES)
12 | 281 nM | 87% | 164 nM | 101% | N#Cc1c[nH]c2c(N3CCC(c4ccc(N5CCC(CN6CCC(n7ccc8cc(N9CCC(=O)NC9=O)ccc87)CC6)CC5)cc4)CC3)ccc(Cl)c12 [Example 90, 4-Chloro-7-(4-{4-[4-({4-[5-(2,4-dioxo-1,3-diazinan-1-yl)-1H-indol-1-yl]piperidin-1-yl}methyl)piperidin-1-yl]phenyl}piperidin-1-yl)-1H-indole-3-carbonitrile]
13 | 29 nM | 101% | 449 nM | 89% | N#Cc1c[nH]c2c(N3CCC(c4ccc(C(=O)N5CCC(CN6CCN(c7cc8c(cc7F)C(=O)N(C7CCC(=O)NC7=O)C8=O)CC6)CC5)cc4)CC3)ccc(Cl)c12 (stereo not shown) [Example 100, 4-Chloro-7-(4-{4-[4-({4-[2-(2,6-dioxopiperidin-3-yl)-6-fluoro-1,3-dioxo-2,3-dihydro-1H-isoindol-5-yl]piperazin-1-yl}methyl)piperidine-1-carbonyl]phenyl}piperidin-1-yl)-1H-indole-3-carbonitrile]
14 | 6 nM | 97% | 15 nM | 87% | N#Cc1c[nH]c2c(N3CCC(c4ccc(OC5CCN(CC6CCN(c7ccc8c(c7)CN(C7CCC(=O)NC7=O)C8=O)CC6)CC5)cc4)CC3)ccc(F)c12 (stereo not shown) [Example 101, 7-[4-(4-{[1-({1-[2-(2,6-Dioxopiperidin-3-yl)-1-oxo-2,3-dihydro-1H-isoindol-5-yl]piperidin-4-yl}methyl)piperidin-4-yl]oxy}phenyl)piperidin-1-yl]-4-fluoro-1H-indole-3-carbonitrile]
15 | 52 nM | 86% | 44 nM | 106% | Cc1cc(N2CCC(=O)NC2=O)cc2ccn(C3CCN(CC4CCN(c5ccc(C6CCN(c7ccc(Cl)c8c(C#N)c[nH]c78)CC6)cc5)CC4)CC3)c12 [Example 102, 4-Chloro-7-(4-{4-[4-({4-[5-(2,4-dioxo-1,3-diazinan-1-yl)-7-methyl-1H-indol-1-yl]piperidin-1-yl}methyl)piperidin-1-yl]phenyl}piperidin-1-yl)-1H-indole-3-carbonitrile]
16 | 8 nM | 85% | 7 nM | 107% | Cn1c(C2CCN(CC3CCN(c4ccc(C5CCN(c6ccc(Cl)c7c(C#N)c[nH]c67)CC5)cc4)CC3)CC2)cc2ncc(N3CCC(=O)NC3=O)cc21 [Example 103, 4-Chloro-7-(4-{4-[4-({4-[6-(2,4-dioxo-1,3-diazinan-1-yl)-1-methyl-1H-pyrrolo[3,2-b]pyridin-2-yl]piperidin-1-yl}methyl)piperidin-1-yl]phenyl}piperidin-1-yl)-1H-indole-3-carbonitrile]
17 | 13 nM | 98% | 46 nM | 97% | N#Cc1c[nH]c2c(N3CCC[C@@H](c4ccc(N5CCC(CN6CCN(c7ccc(C(=O)NC8CCC(=O)NC8=O)c(F)c7)CC6)CC5)cc4)C3)ccc(Cl)c12 (stereo partly drawn) [Example 104, 4-{4-[(1-{4-[(3S)-1-(4-chloro-3-cyano-1H-indol-7-yl)piperidin-3-yl]phenyl}piperidin-4-yl)methyl]piperazin-1-yl}-N-(2,6-dioxopiperidin-3-yl)-2-fluorobenzamide]

From US20260274832A1, “COMPOUNDS AND THEIR USE IN TREATING CANCER” (ASTRAZENECA AB, priority 2023, published 2026)
